Results from patent US20180250320A1, “COMPOSITIONS AND METHODS FOR TREATING SOLID TUMORS” (THE JOHNS HOPKINS UNIVERSITY, priority 2015, published 2018).
Read-outs that look alike come from different tables or passages of the source.

Tests used:
[1] = tested on: Human lung cancer cell lines H23 and A549; experiment: Expression of anti-viral genes and cancer testis antigens after AZA priming and HDACi treatment; assay type: cell-based; conditions: for expression of anti-viral genes: FIG. 4A; for expression of cancer testis antigens: FIG. 4B
Text: FIGS. 4A and 4B. […] Human lung cancer cell lines H23 and A549 were primed by treatment with AZA (red line) for 5 days followed by 3-5 days of treatment with the HDACi. For many genes, addition of an HDACi to AZA increases gene expression above levels attained by AZA alone.

[2] = cited from earlier work
[3] = tested on: VEGF-defensin ID8 ovarian cells; experiment: Ascites fluid volume in the ID8 model of ovarian cancer; assay type: in vivo; conditions: mice drained at week 6 after injection; same regimen; vs untreated (Mock) or single agent
Protocol: Mice were injected with 2.5×10^6VEGF-defensin ID8 ovarian cells i.p. Three days later, mice began treatment with 0.5 mg/kg 5-azacytidine (AZA) for 5 days per week. The next week the mice were treated with either 2 mg/kg MS275 or ITF 5 days a week, and the treatments alternated by week until the end of the experiment. Mice developed ascites fluid by week 4.5, and were drained and the ascites volume was measured. Ascites volume from mice drained at week 6 after injection.

[4] = HDACi in combination with AZA: AZA priming 5 days, then 3-5 days HDACi

Row | Structure (SMILES) | expression of anti-viral genes [1, 4] | expression of cancer testis antigens [1, 4] | expression of anti-viral genes ([1]; HDACi used as single agent) | expression of cancer testis antigens ([1]; HDACi used as single agent) | solubility ([2]; 5% Tween 80 in water) | solubility ([2]; 5% dextrose in water) | solubility ([2]; N-methyl-2-pyrrolidone) | solubility ([2]; acetone) | solubility ([2]; dimethylsulfoxide (DMSO)) | solubility ([2]; ethanol/water (50/50)) | solubility ([2]; ethanol) | solubility ([2]; methyl ketone) | solubility ([2]; normal saline) | solubility ([2]; polyethylene glycol) | solubility ([2]; propylene glycol) | solubility ([2]; water-saturated octanol) | solubility ([2]; water) | ascites fluid volume [3]
1 | Nc1ccccc1NC(=O)c1ccc(CNC(=O)OCc2cccnc2)cc1 [Entinostat] | increase expression | increase expression | NOT | NOT | – | – | – | – | – | – | – | – | – | – | – | – | – | –
2 | Nc1ncn([C@@H]2O[C@H](CO)[C@@H](O)[C@H]2O)c(=O)n1 [AZA, 4-amino-1-β-D-ribofuranozyl-s-triazin-2(1H)-one] | – | – | – | – | sparingly soluble | sparingly soluble | sparingly soluble | insoluble | soluble | slightly soluble | insoluble | insoluble | sparingly soluble | slightly soluble | slightly soluble | sparingly soluble | sparingly soluble | significantly reduced ascites volume compared to Mock
3 | CCN(CC)Cc1ccc2cc(COC(=O)Nc3ccc(C(=O)NO)cc3)ccc2c1.Cl [Givinostat, diethyl-[6-(4-hydroxycarbamoyl-phenylcarbamoyloxymethyl)-naphthalen-2-ylmethyl]-ammonium chloride] | increase expression | increase expression | NOT | NOT | – | – | – | – | – | – | – | – | – | – | – | – | – | –
